In PMC11084152, “Galf-Specific Neolectins: Towards Promising Diagnostic Tools” (International Journal of Molecular Sciences, 2024):
Like-named read-outs stand apart in the source and are kept apart here.

Legend:
GalfNeoLect = GalfNeoLect (Streptomyces sp. JHA19, UniProt A0A0K2SRV3, E464Q); experiment: Competitive inhibition assay of GalfNGP binding to immobilised GalfNeoLect; parameters: species or system Streptomyces sp. strain JHA19; conditions: for inhibition of GalfNGP binding to immobilised GalfNeoLect: result in words; for IC50: biotinylated GalfNGP (2 μg/mL) as tracer, read-out: IC50 of inhibitors towards GalfNeoLect
Experimental: In the competitive inhibition assay, we investigated the ability of selected pNP, azido, or thyoaryl monosaccharide substrates (Galf-N3, Galf-thioaryl, pNP-β-D-Galf, pNP-β-D-Galp, pNP-α-L-Araf, pNP-β-D-Ribf) (Figure 5) for their ability to inhibit the binding of GalfNGP to immobilised GalfNeoLect.
(§1) The interaction profiles of each compound were determined through an indirect method, based on the inhibition by the compound of the interaction between a specific coupled lectin–glycan (a neoglycoprotein labelled with biotin and used as a tracer). Briefly, a mix of biotinylated GalfNGP (fixed concentration) and the corresponding compounds (in a range of concentrations), prepared in PBS supplemented with 1 mM CaCl2 and 0.5 mM MgCl2, are deposed in each well (50 μL each) in triplicate and incubated for 2 h at room temperature. After washing with PBS buffer, the conjugate streptavidin-DTAF was added (50 μL) and incubated for 30 min more. The plate was washed again with PBS. Finally, 100 μL of PBS was added for the readout of the fluorescent plate, performed with a fluorescence reader (λex = 485 nm, λem = 530 nm, Fluostar OPTIMA, BMG LABTECH, France). The signal intensity was inversely correlated with the capacity of the compound to be recognised by the lectin and expressed as inhibition percentage with comparison with the corresponding biotinylated GalfNGP alone.
Aspergillus brasiliensis (ATCC 16404) culture was inoculated on Sabouraud agar plates and incubated at 37 °C for 4 days until the formation of a black mycelium mat, which contains spores. Fresh spores were harvested with a sterile plastic inoculation loop by rubbing the black mycelium mat and dispersed in physiological serum solution (0.8% NaCl, 10 mL). The spore solution was resuspended well by using a vortex to prevent aggregation and was calibrated using a Malassez counting chamber to 5.10^6 spores/mL. Spores’ solutions (5.10^6 spores/mL) were used directly in inhibition assays with GalfNeoLect, following the same protocol describe above (Section 4.8).

wild-type Galf-ase [1] = target: T1, wild-type Galf-ase (Streptomyces sp. JHA19, UniProt A0A0K2SRV3); experiment: Competitive inhibition assay of GalfNGP binding to wild-type Galf-ase; parameters: species or system Streptomyces sp. strain JHA19; conditions: biotinylated GalfNGP (2 μg/mL) as tracer; read-out: IC50 of inhibitors towards wild-type Galf-ase
Experimental: Indeed, Table 6 summarises the 50% inhibitory concentrations (IC50) obtained from all compounds studied.
as §1
Target sequence in this assay (A0A0K2SRV3 45-786 limits assumed): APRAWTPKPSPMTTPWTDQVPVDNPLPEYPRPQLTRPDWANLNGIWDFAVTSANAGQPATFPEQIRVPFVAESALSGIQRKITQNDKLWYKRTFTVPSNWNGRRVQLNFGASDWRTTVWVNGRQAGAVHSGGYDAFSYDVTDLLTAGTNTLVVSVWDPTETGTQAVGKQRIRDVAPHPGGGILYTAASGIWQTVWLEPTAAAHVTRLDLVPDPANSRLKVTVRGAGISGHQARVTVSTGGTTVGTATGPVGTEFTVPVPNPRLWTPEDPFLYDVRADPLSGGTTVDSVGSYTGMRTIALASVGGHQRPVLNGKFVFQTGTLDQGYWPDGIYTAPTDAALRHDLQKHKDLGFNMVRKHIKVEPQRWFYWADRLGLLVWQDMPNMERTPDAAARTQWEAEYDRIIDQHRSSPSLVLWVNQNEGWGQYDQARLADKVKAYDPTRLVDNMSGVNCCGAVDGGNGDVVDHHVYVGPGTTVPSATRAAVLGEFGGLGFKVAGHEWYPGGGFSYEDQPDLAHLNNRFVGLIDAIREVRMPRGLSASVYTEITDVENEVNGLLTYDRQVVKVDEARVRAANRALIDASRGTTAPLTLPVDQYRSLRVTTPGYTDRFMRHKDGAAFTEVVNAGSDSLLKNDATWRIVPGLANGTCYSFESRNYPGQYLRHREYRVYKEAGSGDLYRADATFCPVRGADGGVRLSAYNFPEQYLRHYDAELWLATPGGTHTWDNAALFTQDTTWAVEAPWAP

wild-type Galf-ase [2] = target: T1, wild-type Galf-ase; experiment: Direct binding assay (ELLA) of biotinylated neoglycoproteins to immobilised wild-type Galf-ase; parameters: species or system Streptomyces sp. strain JHA19; conditions: read-out: BC50 (concentration to obtain 50% GalfNGP binding)
Source text: To study and evaluate the binding interactions of Galf-ase E464Q mutant variant, as novel Galf-binding lectin (GalfNeoLect), we synthetised novel neoglycoproteins (NGPs) to serve as the Galf-bearing scaffold. Bovine serum albumin (BSA), a well-known, naturally unglycosylated protein that has up to 60 primary amino functional groups available for click-conjugation chemistry, has been functionalised with Galf motifs. Galf-N3, involved in the corresponding click reaction with propargyl functionalised BSA, was obtained from the corresponding per-O-acetyl galactofuranose using TMSN3 as a source of azide and TMSOTf as the Lewis acid (see ESI for chemical synthesis). After acetyl cleavage, the resulting/expected Galf-conjugated BSA neoglycoprotein (GalfNGP) synthesis has been first characterised for its functionality by direct binding assay with human Intelectin-1 (hIntL-1), wild-type Galf-ase, and GalfNeoLect. As hIntL-1 has been reported to bind furanose residues (five-membered-ring saccharide isomers), including a β-Galf–containing disaccharide, it served as a positive control for the evaluation of newly synthetised GalfNGP. […]
The assays were performed according to GlycoDiag’s protocol, already described in the literature. […] Finally, 100 μL of PBS was added for reading the plate using a fluorescence reader (λex = 485 nm, λem = 530 nm, Fluostar OPTIMA, BMG LABTECH, France). […]

E464C = system: T2, E464C; experiment: Absorbance at 405 nm of p-nitrophenol released by hydrolysis of pNP-β-D-Galf (0.01-5 mM), citrate/phosphate buffer pH 4.5, 37 °C, 20 min, stopped with Na2CO3.; assay type: biochemical; conditions: n = 3
T2 construct: pET-28a(+) construct, expressed in E. coli Rosetta (DE3), Ni-NTA purified
Experimental: (§2) In analysing the hydrolitic activity and the hydrolysis rate-limiting steps of the three Galf-ase mutant variants E464S, E464C, and E464Q, the Michaelis–Menten kinetic parameters were determined under the similar conditions used for wild-type enzyme. […] Altogether, the obtained values are in the same order of magnitude. […] The significant decrease in catalytic efficiency by a factor of 3000–1400 times for E464S and E464C mutants, respectively, and 56 times lower for E464Q mutant is observed. These kinetic observations are in accordance with the other data obtained in similar assays used for the identification of the catalytic residues in retaining and inverting several GHs. The Galf-ase mutant variant E464Q featured only a minor change in the KM value, 166 µM compared to 250 µM, of the wild-type Galf-ase and, given the advantage that, contrary to other mutant variants, it was purified in sufficient quantities (0.3 mg/L), it was selected as a promising candidate to be tested as a novel Galf-binding lectin (GalfNeoLect). Further in the article, the E464Q mutant variant is addressed as GalfNeoLect.
(§3) Kinetic parameters were determined with pNP-β-D-Galf as a substrate in different concentration ranges (0.01–5 mM). The reaction (200 μL), containing buffer (20 μL; 0.1 M citric acid/0.2 M Na2HPO4 pH 4.5) and water, if required, was started by addition of the enzyme (2 μL; 0.13 mg/mL) and, after 20 min of incubation at 37 °C (water bath), the reaction was terminated (100 μL; 1 M Na2CO3) and absorbance (405 nm) of released pNP was measured. All the reactions were assayed in triplicate and absorbance values were corrected for the spontaneous hydrolysis of the substrate. The kinetic parameters (KM, Vm, kcat) were calculated using GraphPad Prism 5 software (GraphPad Software, San Diego, CA, USA).
(§4) Figure S4. Michaelis–-Menten plot of pNP-β-D-Galf hydrolysis reaction catalysed by Galf-ase E464S, E464C, and
(§5) E464Q mutant variants. Mean values and SD error bars were calculated from three independent experiments
(§6) (*except E464C) and from a single protein preparation. […]

E464Q (GalfNeoLect) = system: T3, E464Q (GalfNeoLect); experiment: as above; assay type: biochemical; conditions: n = 3
T3 construct: pET-28a(+) construct, expressed in E. coli Rosetta (DE3), Ni-NTA purified
Experimental: as §2, §3, §4, §5, §6

E464S = system: T4, E464S; experiment: as above; assay type: biochemical; conditions: n = 3
T4 construct: pET-28a(+) construct, expressed in E. coli Rosetta (DE3), Ni-NTA purified
Experimental: as §2, §3, §4, §5, §6

[3] = system: T5, Galf-ase (wild-type Galf-ase; E464); experiment: as above; assay type: biochemical; conditions: n = 3; cited from earlier work
T5 construct: pET-28a(+) construct, expressed in E. coli Rosetta (DE3), Ni-NTA purified
Experimental: as §2, with “Further in the article, the E464Q mutant variant is addressed as GalfNeoLect.” left out
Kinetic parameters were determined with pNP-β-D-Galf as a substrate in different concentration ranges (0.01–5 mM). […] All the reactions were assayed in triplicate and absorbance values were corrected for the spontaneous hydrolysis of the substrate. The kinetic parameters (KM, Vm, kcat) were calculated using GraphPad Prism 5 software (GraphPad Software, San Diego, CA, USA). […]

Chain of GalfNeoLect (A0A0K2SRV3 45-786 E464Q limits assumed): as the sequence (A0A0K2SRV3 45-786 limits assumed) above, with E420Q counted along it

| Compound | inhibition of GalfNGP binding to immobilised GalfNeoLect (GalfNeoLect) | IC50 (GalfNeoLect) | IC50 (wild-type Galf-ase [1]) | also measured |
| --- | --- | --- | --- | --- |
| O=[N+]([O-])c1ccc(O[C@@H]2O[C@H](CO)[C@H](O)[C@H](O)[C@H]2O)cc1 [pNP-β-D-Galp] | no inhibition |  |  |  |
| Cc1ccc(S[C@@H]2O[C@@H]([C@H](O)CO)[C@H](O)[C@H]2O)cc1 [Galf-thioaryl] |  | 180 µM | 180 µM | IC50 (GalfNeoLect; listed as Galf-Thioaryl): 150 µM |
| GalfNGP: Galf-conjugated bovine serum albumin neoglycoprotein carrying multivalent Galf units |  |  |  | EC50 (wild-type Galf-ase [2]): 0.024 µM |
| O=[N+]([O-])c1ccc(O[C@@H]2O[C@@H]([C@H](O)CO)[C@H](O)[C@H]2O)cc1 [pNP-β-D-Galf, p-nitrophenyl β-D-galactofuranoside] |  |  |  | Km (E464C): 170 µM; Km (E464Q (GalfNeoLect)): 166 µM; Km (E464S): 36 µM; Km [3]: 250 µM |
| O=[N+]([O-])c1ccc(O[C@@H]2O[C@@H]([C@H](O)CO)[C@H](O)[C@H]2O)cc1 [pNP-β-D-Galf] |  | 1140 µM | 560 µM |  |
| O=[N+]([O-])c1ccc(O[C@@H]2O[C@@H](CO)[C@H](O)[C@H]2O)cc1 [pNP-α-L-Araf] | no inhibition |  |  |  |
| [N-]=[N+]=N[C@@H]1O[C@@H]([C@H](O)CO)[C@H](O)[C@H]1O [Galf-N3, β-D-galactofuranosyl azide] |  | 1390 µM | 590 µM |  |
| O=[N+]([O-])c1ccc(OC2OC(CO)C(O)C2O)cc1 [pNP-β-D-Ribf] | no inhibition |  |  |  |
